Measured values: US10849904B2, “Methods for treatment of retinal disease by photoreceptor gene expression modulation” (University of Washington, priority 2015, dated 2020)

Columns and labels:
[1] = system: intact retinas from P12 wild type mice; experiment: P12 mouse retinal explant culture, qPCR for rod gene expression; type: cell-based; conditions: P12 explants, 1 μM, 2 days, vs DMSO
Text: To identify functional Nr2e3 antagonists, compounds were cheminformatically searched and structural analogs of a putative Nr2e3 interacting compound with unknown function were collected. See FIGS. 2 and 4 for the structures of the compounds. The collected compounds were then screened in a physiologically relevant primary culture assay using intact retinas from postnatal day 12-13 (P12-13) C57BL/6 mice for suppression of Rho expression (See FIG. 6A). After a 2 day culture period with media containing DMSO or compounds at 1 μM, the retinas were collected and assessed Rho expression by qPCR. Rho was chosen because it is a well-described target of Nr2e3 in rod photoreceptors. […] This analysis also provided an initial structure-activity relationship.
Nr2e3 loss-of-function mutations lead to a reduction in rod gene expression. To determine whether the same was true for PR1 (FIG. 6D), explant cultures of P12 retina as above were treated and assayed for other rod photoreceptor genes. After 2 days in culture, PR1 decreased the expression of the rod specific genes Nrl, Nr2e3, Rho, Gnat1, and Pde6b compared to DMSO treatment by qPCR analysis (FIG. 6C). […] To determine the dose-response relationship between PR1 concentration and expression of rod genes, retinas from P12 mice were explanted in media containing DMSO or 0.1, 1, 5, or 10 μM PR1 for 2-3 days and assayed Nrl, Nr2e3, and Rho expression by qPCR. […] PR1 was tested to determine whether it could cause a reduction in Rho expression in human rod photoreceptors as well. Pairs of 113 day post-conception retinas were explanted in media with DMSO or 10 μM PR1 for 7 or 23 days. After 7 and 23 days in culture, PR1 decreased the expression of Rho compared to DMSO treatment (FIG. 6F), similar to the effect observed in mouse retinal explants.
Intact retinas without RPE from mice of various strains and ages as indicated were explanted on 0.4 μm pore tissue culture inserts (Millipore) as previously described (Ueki, Y., et al., P53 is required for the developmental restriction in Muller glial proliferation in mouse retina. Glia, 2012. 60(10): p. 1579-89; Ueki, Y., et al., A transient wave of BMP signaling in the retina is necessary for Muller glial differentiation. Development, 2015. 142(3): p. 533-43. Full media (DMEM/F12 (1:1) containing 1% dialyzed FBS, 1% Pen Strep, 0.3% D+ glucose, 2% B27, and 1% N2) changes were performed every other day and small molecules were used at 0.1 μM to 10 μM. Where indicated, EdU (Invitrogen) was included in the media at 5 μg/mL and visualized by staining with the Click-iT EdU Alexa Fluor kit (Thermo Fisher Scientific). For human retinal explant cultures, tissue from 113 day post-conception fetuses was obtained from the University of Washington Birth Defects Laboratory and explanted on 0.4 μm pore tissue culture inserts (Millipore) in media (Neurobasal A with 1% FBS, 1% Pen Strep, 1% N2, 1% B27) containing 10 μM Photoregulin1 or an equal volume of DMSO.
RNA was isolated using TRIzol (Invitrogen) and cDNA was synthesized using the iScript cDNA synthesis kit (Bio-Rad) following an intervening DNase treatment with RQ1 RNase-free DNase (Promega). SSO Fast (Bio-Rad) was used for quantitative real-time PCR. For analysis, values were normalized to Gapdh and ΔΔCt between DMSO and compound-treated samples was expressed as percent of DMSO treated controls (100*2^ΔΔCt). Two-way Student's t-tests were performed on ΔCt values.

Thrb (Trβ2) = experiment: Cone gene expression, Thrb (FIG. 5)

Row | Structure (SMILES) | relative rhodopsin (Rho) expression [1] | cone gene expression, Thrb (Trβ2) (Thrb (Trβ2))
1 | Cc1cccc(C(=O)NCC(=O)Nc2ncc(C)s2)c1 [CA9513] | reducing rhodopsin expression | 
2 | Cc1cccc(C(=O)NC(C(=O)Nc2ncc(C)s2)C(C)C)c1 (stereo not shown) [CA95] | reducing rhodopsin expression | increase
3 | Cc1cc(C)cc(NC(=O)CCc2nc3sc4c(c3c(=O)[nH]2)CCC4)c1 [CA8801] | reducing rhodopsin expression | 
